Results as given in patent publication US20190315823A1, “SMALL CATIONIC ANTI-BIOFILM AND IDR PEPTIDES” (priority 2013, published 2019).
Like-named read-outs stand apart in the source and are kept apart here. Marks after values point to notes of the source that are not given here. Peptide text beside a SMILES is read from it.

How the values were obtained:
Assay type in all cases: cell-based
[1] = system: P. aeruginosa biofilm
Description: (§1) Methods of assessment of anti-biofilm activity—Biofilm formation was initially analyzed using a static abiotic solid surface assay as described elsewhere (de la Fuente-Nunez et al., 2012). […] Planktonic cells were removed, biofilm cells adhering to the side of the tubes were stained with crystal violet, and absorbance at 595 nm was measured using a microtiter plate reader (Bio-Tek Instruments Inc., United States). Some peptides were screened against two Gram negative organisms, P. aeruginosa and K. pneumoniae using a Bioflux apparatus (AutoMate Scientific, Berkeley, Calif.; http://www.autom8.com/bioflux_biofilm.html), which allows for the high-throughput, real-time analysis of biofilms.

[2] = system: S. aureus biofilm
Description: as §1

[3] = system: human peripheral blood mononuclear cells (MCP-1); test: SPOT-synthesized derivative screen: production of chemokine MCP-1; conditions: Table 12A, No LPS; for MCP1: background subtracted (21.3 pg/ml)
How it was run: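 PBMC from heparinized healthy-donor venous blood, Ficoll-separated, cultured at 0.75 to 1×10^6 cells/ml, 37 °C, 5% CO2, under the treatment regimens. MCP-1 in cell-free supernatants measured by capture ELISA.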

[4] = system: LPS-stimulated human peripheral blood mononuclear cells (IL1-β); conditions: Table 12A, cells stimulated with 10 ng/ml LPS; for Fold change in IL1β relative to no peptide LPS stimulated cells: 1002-2013 compared to LPS control of 889 pg/ml
[5] = LPS alone 984 pg/ml, starred values (1002-2013) determined separately, LPS alone 889 pg/ml
[6] = concentration that reduced biofilm growth by 50%

SMILES	MBIC50 P. aeruginosa ([1]; biofilm)	MBIC50 S. aureus ([2]; biofilm)	Fold increase in MCP1 cf. untreated cells [3]	MCP1 [3]	Fold change in IL1β relative to no peptide LPS stimulated cells [4]	IL1β Production (pg/ml) [4, 5]	MBIC50 P. aeruginosa [1, 6]	MBIC50 S. aureus [2, 6]	IL1β Production [4, 5]
CC[C@H](C)[C@H](NC(=O)[C@@H](NC(=O)[C@H](CCCCN)NC(=O)[C@@H](NC(=O)[C@H](CCCNC(=N)N)NC(=O)[C@H](CCCNC(=N)N)NC(=O)[C@@H](NC(=O)[C@H](CCCNC(=N)N)NC(=O)[C@H](CCC(N)=O)NC(=O)[C@@H](N)Cc1c[nH]c2ccccc12)C(C)C)C(C)C)C(C)C)C(=O)N[C@@H](CCCNC(=N)N)C(=O)N[C@@H](CCCCN)C(N)=O [Peptide 2013] (H-WQRVRRVKVIRK-NH2; N-terminus assumed)	20 µg/mL	>80 µg/mL	31	645 pg/mL	0.93	830* pg/ml	–	–	–
CC[C@H](C)[C@H](NC(=O)[C@H](CCCNC(=N)N)NC(=O)[C@@H](NC(=O)[C@H](CCCCN)NC(=O)[C@@H](NC(=O)[C@@H](NC(=O)[C@@H](NC(=O)[C@H](CCCNC(=N)N)NC(=O)[C@@H](N)C(C)C)C(C)C)[C@@H](C)CC)C(C)C)C(C)C)C(=O)N[C@@H](CCCNC(=N)N)C(=O)N[C@@H](CCCNC(=N)N)C(=O)N[C@@H](CCCNC(=N)N)C(N)=O [Peptide 2004] (H-VRVIVKVRIRRR-NH2; N-terminus assumed)	–	–	340	7226 pg/mL	0.56	–	2.5 µg/mL	20 µg/mL	549 pg/mL
CC[C@H](C)[C@H](NC(=O)[C@H](CCCNC(=N)N)NC(=O)[C@@H](NC(=O)[C@H](CCCCN)NC(=O)[C@@H](NC(=O)[C@@H](NC(=O)[C@H](CC(C)C)NC(=O)[C@H](CCCNC(=N)N)NC(=O)[C@@H](N)C(C)C)[C@@H](C)CC)C(C)C)C(C)C)C(=O)N[C@@H](CCCNC(=N)N)C(=O)N[C@@H](CCCNC(=N)N)C(=O)N[C@@H](CCCNC(=N)N)C(N)=O [Peptide 2003] (H-VRLIVKVRIRRR-NH2; N-terminus assumed)	–	–	509	10848 pg/mL	1.07	–	2.5 µg/mL	20 µg/mL	1051 pg/mL
CC[C@H](C)[C@H](NC(=O)[C@H](CCCNC(=N)N)NC(=O)[C@@H](NC(=O)[C@H](CCCCN)NC(=O)[C@@H](NC(=O)[C@@H](NC(=O)[C@H](Cc1c[nH]c2ccccc12)NC(=O)[C@H](CCCNC(=N)N)NC(=O)[C@@H](N)C(C)C)[C@@H](C)CC)C(C)C)C(C)C)C(=O)N[C@@H](CCCNC(=N)N)C(=O)N[C@@H](CCCNC(=N)N)C(=O)N[C@@H](CCCNC(=N)N)C(N)=O [Peptide 2006] (H-VRWIVKVRIRRR-NH2; N-terminus assumed)	–	–	316	6714 pg/mL	0.33	–	20 µg/mL	10 µg/mL	322 pg/mL
CC[C@H](C)[C@H](NC(=O)[C@H](CCCNC(=N)N)NC(=O)[C@@H](NC(=O)[C@H](CCCNC(=N)N)NC(=O)[C@@H](NC(=O)[C@@H](NC(=O)[C@H](CC(C)C)NC(=O)[C@H](CCCNC(=N)N)NC(=O)[C@@H](N)C(C)C)[C@@H](C)CC)C(C)C)C(C)C)C(=O)N[C@@H](Cc1c[nH]c2ccccc12)C(=O)N[C@@H](CCCNC(=N)N)C(=O)N[C@@H](CCCNC(=N)N)C(N)=O [Peptide 2005] (H-VRLIVRVRIWRR-NH2; N-terminus assumed)	–	–	837	17826 pg/mL	0.10	–	2.5 µg/mL	10 µg/mL	101 pg/mL
